Measurements: the supplement of paper PMC10307832

Experiments:
Experiment in all cases: relative viability (nuclei count vs DMSO), 5 days (fraction); higher = more cells survive
Irinotecan + Tozasertib = compound: CCc1c2c(nc3ccc(OC(=O)N4CCC(N5CCCCC5)CC4)cc13)-c1cc3c(c(=O)n1C2)COC(=O)[C@]3(O)CC [Irinotecan] + Cc1cc(Nc2cc(N3CCN(C)CC3)nc(Sc3ccc(NC(=O)C4CC4)cc3)n2)n[nH]1 [Tozasertib] (partner 0.1 µM)
How it was run: (§1)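 Dosing by pin tool came one day after lung cancer cell lines were seeded in 1536-well plates, using either one drug or a fixed anchor-drug dose plus five library-drug doses (not always all listed) in √10 steps. After 5 days, nuclei were counted on 4× images. Relative viability is treated-well nuclei count divided by vehicle-well nuclei count, and values are medians of duplicate plates.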

MK-8033 + Palbociclib = compound: Cn1cc(-c2cnc3ccc4ccc(CS(=O)(=O)NCc5ccccn5)cc4c(=O)c3c2)cn1 [MK-8033] + CC(=O)c1c(C)c2cnc(Nc3ccc(N4CCNCC4)cn3)nc2n(C2CCCC2)c1=O [Palbociclib] (partner 0.5 µM)
How it was run: as §1

MK-8033 + Alpelisib = compound: Cn1cc(-c2cnc3ccc4ccc(CS(=O)(=O)NCc5ccccn5)cc4c(=O)c3c2)cn1 [MK-8033] + Cc1nc(NC(=O)N2CCC[C@H]2C(N)=O)sc1-c1ccnc(C(C)(C)C(F)(F)F)c1 [Alpelisib] (partner 2 µM)
How it was run: as §1

MK-8033 + Decitabine = compound: Cn1cc(-c2cnc3ccc4ccc(CS(=O)(=O)NCc5ccccn5)cc4c(=O)c3c2)cn1 [MK-8033] + Nc1ncn([C@H]2C[C@H](O)[C@@H](CO)O2)c(=O)n1 [Decitabine] (partner 2 µM)
How it was run: as §1

Cell Line | relative viability (Irinotecan + Tozasertib; first compound 2 µM) | relative viability (Irinotecan + Tozasertib; first compound 6.325 µM) | relative viability (Irinotecan + Tozasertib; first compound 20 µM) | relative viability (MK-8033 + Palbociclib; first compound 0.02 µM) | relative viability (MK-8033 + Palbociclib; first compound 0.06325 µM) | relative viability (MK-8033 + Palbociclib; first compound 0.2 µM) | relative viability (MK-8033 + Palbociclib; first compound 0.6325 µM) | relative viability (MK-8033 + Palbociclib; first compound 2 µM) | relative viability (MK-8033 + Alpelisib; first compound 0.02 µM) | relative viability (MK-8033 + Alpelisib; first compound 0.06325 µM) | relative viability (MK-8033 + Alpelisib; first compound 0.2 µM) | relative viability (MK-8033 + Alpelisib; first compound 0.6325 µM) | relative viability (MK-8033 + Alpelisib; first compound 2 µM) | relative viability (MK-8033 + Decitabine; first compound 0.02 µM) | relative viability (MK-8033 + Decitabine; first compound 0.06325 µM) | relative viability (MK-8033 + Decitabine; first compound 0.2 µM) | relative viability (MK-8033 + Decitabine; first compound 0.6325 µM) | relative viability (MK-8033 + Decitabine; first compound 2 µM) | relative viability (Irinotecan + Tozasertib; first compound 0.6325 µM)
NCI-H1734 | 0.279 | 0.198 | 0.33 | 0.349 | 0.309 | 0.342 | 0.331 | 0.371 | 0.628 | 0.57 | 0.644 | 0.654 | 0.72 | 0.562 | 0.463 | 0.478 | 0.504 | 0.481 | 
NCI-H727 | 0.551 | 0.47 | 0.507 | 0.668 | 0.617 | 0.653 | 0.612 | 0.657 | 0.502 | 0.615 | 0.589 | 0.577 | 0.589 | 0.846 | 0.783 | 0.921 | 0.927 | 0.829 | 0.524
HOP-62 | 0.328 | 0.249 | 0.215 | 0.469 | 0.41 | 0.425 | 0.496 | 0.446 | 0.987 | 0.75 | 1.05 | 0.956 | 0.938 | 0.222 | 0.234 | 0.261 | 0.189 | 0.199 | 0.234
NCI-H2405 | 0.605 | 0.354 | 0.246 | 0.515 | 0.505 | 0.512 | 0.514 | 0.555 | 0.732 | 0.731 | 0.699 | 0.765 | 0.736 | 0.776 | 0.703 | 0.67 | 0.701 | 0.746 | 
A-427 | 0.159 | 0.216 | 0.182 | 0.481 | 0.552 | 0.494 | 0.508 | 0.492 | 1.05 | 1.07 | 1.03 | 1.16 | 1.11 | 0.579 | 0.523 | 0.585 | 0.583 | 0.569 | 
LCLC-97TM1 | 0.176 | 0.125 | 0.113 | 0.243 | 0.221 |  | 0.232 | 0.216 | 0.199 | 0.234 | 0.205 | 0.207 | 0.235 | 0.218 | 0.207 |  | 0.209 | 0.211 | 0.14
NCI-H3122 | 0.339 | 0.2 | 0.0585 | 0.155 | 0.173 | 0.19 | 0.191 | 0.223 | 0.817 | 0.755 | 0.777 | 0.853 | 0.859 | 0.441 | 0.478 | 0.406 | 0.508 | 0.469 | 0.461
RERF-LC-KJ | 0.438 | 0.358 | 0.179 | 1.11 | 1.07 | 1.01 | 1.08 | 1.08 | 0.735 | 0.76 | 0.698 | 0.777 | 0.774 | 0.501 | 0.712 | 0.682 | 0.756 | 0.686 | 0.444
NCI-H2170 | 0.701 | 0.236 | 0.181 | 0.392 | 0.345 | 0.372 | 0.388 | 0.391 | 0.652 | 0.758 | 0.691 | 0.773 | 0.772 | 0.461 | 0.405 | 0.458 | 0.479 | 0.468 | 0.801
ABC-1 | 0.236 | 0.211 | 0.114 | 0.664 | 0.733 | 0.591 | 0.724 | 0.646 | 1.12 | 1.12 | 1.15 | 1.04 | 1.08 | 1.1 | 0.976 | 1.07 | 1.01 | 1.26 | 
HCC-44 | 1.17 | 0.377 | 0.308 | 0.98 | 1.01 | 0.975 | 1.01 | 1.01 | 0.798 | 0.775 | 0.751 | 0.796 | 0.789 | 0.95 | 0.933 | 0.948 | 1.02 | 0.954 | 
HCC-15 | 0.332 | 0.164 | 0.151 | 0.748 | 0.625 | 0.722 | 0.699 | 0.738 | 0.847 | 0.947 | 0.863 | 0.841 | 0.875 | 0.62 | 0.595 | 0.548 | 0.57 | 0.653 | 
SK-LU-1 | 0.295 | 0.26 | 0.285 | 0.411 | 0.373 | 0.373 | 0.367 | 0.383 | 1 | 1.04 | 0.806 | 1.02 | 0.988 | 0.545 | 0.539 | 0.559 | 0.638 | 0.657 | 0.315
NCI-H1793 | 0.345 | 0.217 | 0.219 | 0.263 |  | 0.274 | 0.288 | 0.291 | 0.608 |  | 0.54 | 0.603 | 0.816 | 0.486 |  | 0.51 | 0.379 | 0.543 | 
H3255 | 0.501 | 0.375 | 0.437 | 0.307 | 0.361 | 0.309 | 0.307 | 0.336 | 0.643 | 0.571 | 0.562 | 0.695 | 0.608 | 0.486 |  | 0.595 | 0.642 | 0.639 | 0.513
NCI-H1666 | 0.543 | 0.569 | 0.26 | 0.684 | 0.627 | 0.523 | 0.707 | 0.598 | 0.937 | 1.01 | 0.874 | 0.998 | 0.942 | 0.792 | 0.746 | 0.728 | 0.766 | 0.736 | 0.552
201T | 0.682 | 0.402 | 0.318 | 0.329 | 0.37 | 0.356 | 0.369 | 0.367 | 1.11 | 0.946 | 0.976 | 1.05 | 1.04 | 0.9 | 0.868 | 0.851 | 0.873 | 0.876 | 
